In article PMC6720511, “Synthesis and biological evaluation of novel N-(piperazin-1-yl)alkyl-1H-dibenzo[a,c]carbazole derivatives of dehydroabietic acid as potential MEK inhibitors” (Journal of Enzyme Inhibition and Medicinal Chemistry, 2019):
Read-outs that look alike come from different tables or passages of the source. Peptide text beside a SMILES is read from it. * marks the point of attachment. Cbz = O=C(OCc1ccccc1)*; CH2F = FC*

Columns and labels:
Hep3B = test: MTT cytotoxic assay; assay type: cell-based, human; conditions: 48 h, mean value ± SD
Experimental: (§1) Three human hepatocarcinoma cell lines (SMMC-7721, HepG2 and Hep3B) and normal hepatocyte cell line (QSG-7701) were maintained in Dulbecco Modified Eagle Medium (DMEM) containing 4.0 mM L-Glutamine and 4500 mg/l Glucose supplemented with 10% (v/v) foetalbovine serum (FBS) and 100 unites/mL penicillin/streptomycin at 37 °C in humidified atmosphere of 5% CO2 and 95% air.
(§2) The in vitro cytotoxic activities of the carbazole derivatives of DHA were evaluated against three human hepatocarcinoma cell lines (SMMC-7721, HepG2 and Hep3B) and a normal human hepatocyte cell line (QSG-7701) via the MTT colorimetric method. Briefly, SMMC-7721, HepG2, Hep3B and QSG-7701 cells were harvested at log phase of growth and seeded in 96-well plates (100 µL/well at a density of 2 × 10^5 cells/mL). After 24 h incubation at 37 °C and 5% CO2 to allow cell attachment, cultures were exposed to various concentrations of the isolated compounds for 48 h. Finally, MTT solution (2.5 mg/mL in PBS) was added (40 µL/well). Plates were further incubated for 4 h at 37 °C, and the formazan crystals formed were dissolved by adding 150 µL/well of DMSO. Absorption at 570 nm was measured with an ELISA plate reader. […] Doxorubicin was co-assayed as positive control.

HepG2 = test: MTT cytotoxic assay; assay type: cell-based, human; conditions: mean value ± SD
Experimental: as §1, §2

SMMC-7721 = test: MTT cytotoxic assay; assay type: cell-based, human; conditions: mean value ± SD
Experimental: as §1, §2

[1] = system: normal hepatocyte cell line (QSG-7701); test: MTT cytotoxic assay on normal hepatocytes; assay type: cell-based, human; conditions: mean value ± SD
Experimental: as §1, §2

MEK1 [2] = target: T1, MEK1 (Homo sapiens, UniProt Q02750); test: In vitro MEK1 inhibition assay (ADP-Glo kinase assay); assay type: biochemical; conditions: for IC50: recombinant GST-MEK1, GST-ERK2, 10 µM ATP, mean value ± SD, read-out: MEK1 inhibitory activity IC50 value
T1 construct: purchased Carna Biosciences, Japan
T1 sequence (Q02750 whole entry): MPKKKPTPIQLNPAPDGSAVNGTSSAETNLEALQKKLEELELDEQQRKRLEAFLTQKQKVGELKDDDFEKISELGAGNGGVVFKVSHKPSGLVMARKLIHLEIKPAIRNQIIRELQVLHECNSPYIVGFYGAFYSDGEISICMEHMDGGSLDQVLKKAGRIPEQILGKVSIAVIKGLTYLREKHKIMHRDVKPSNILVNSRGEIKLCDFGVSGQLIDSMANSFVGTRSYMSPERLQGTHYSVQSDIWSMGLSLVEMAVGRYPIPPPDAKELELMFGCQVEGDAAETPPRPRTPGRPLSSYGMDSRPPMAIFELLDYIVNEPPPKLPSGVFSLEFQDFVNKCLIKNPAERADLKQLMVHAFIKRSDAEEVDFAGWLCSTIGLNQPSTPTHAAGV
Experimental: An in vitro kinase assay of MEK1 was performed using ADP-Glo kinase assay (Promega, Madison, WI, USA) according to the manufacturer’s protocol. […] Reactions were stopped by adding 5 µL of ADP-Glo reagent to each well. After incubating at 22 °C for 40 min, 10 µL of the kinase detection reagent was added and the plates were incubated for another 30 min at 22 °C in the dark. The reaction mixture was analysed by EnSpire (PerkinElmer, Waltham, MA, USA). U0126 was used as the positive control for MEK1 inhibition.

MEK1/2 = system: MEK1/2; parameters: method as in PMID 21245089; conditions: cited from earlier work
HepG2 cells = test: Cell death inhibition assay; assay type: cell-based, human; conditions: 24 h
Experimental: Figure 6. Compound 10g induced oncosis and apoptosis of HepG2 cells. (a) PD150606 and Z-VAD-FMK partially reversed compound 10g-induced cell death. HepG2 cells were incubated with PD150606, Z-VAD-FMK or Necrostatin-1 at indicated concentration for 24 h alone or in combination with compound 10g at indicated concentration for 24 h. (b) Compound 10g induced the degradation of α-tubulin and β-actin, and activated oncosis marker calpain-1 autolysis from the 80 kDa event to 76 kDa event in western blot analysis. *, p < 0.01; **, p < 0.01; #, p < 0.01; &, p < 0.001. (c) Compound 10g induced the upregulation of apoptotic protein Bax, caspase-3, caspase-9 and plasmic cytochrome c levels, and the downregulation of antiapoptotic protein Bcl-2 level. *, p < 0.001; **, p < 0.01; #, p < 0.01; and p < 0.01.

[3] = system: three human hepatocarcinoma cell lines (SMMC-7721, HepG2 and Hep3B); test: MTT cytotoxic assay, statements over the three cancer cell lines; assay type: cell-based
Experimental: as §1, §2

MEK1 [4] = target: T1, MEK1; test: Preliminary screening of in vitro MEK1 inhibitory activity; assay type: biochemical

Molecule | IC50 (Hep3B; Homo sapiens, Hep3B) [µM] | IC50 (HepG2; Homo sapiens, HepG2, 48 h) [µM] | IC50 (SMMC-7721; Homo sapiens, SMMC-7721, 48 h) [µM] | IC50 ([1]; Homo sapiens, QSG7701, 48 h) [µM] | IC50 (MEK1 [2]) [µM] | further results
COC(=O)C1(C)CCCC2(C)c3ccc(C(C)C)cc3-c3c(c4cc(F)ccc4n3CCN3CCNCC3)C12 (centres unmarked) [Compound 10i, 2,3,4,4a,9,13c-Hexahydro-12-fluoro-7-isopropyl-1,4a-dimethyl-9–(2-(piperazin-1-yl)ethyl)-1H-dibenzo[a,c]carbazole-1-carboxylic acid methyl ester] | 3.32 ± 0.2 | 3.91 ± 0.34 | 4.32 ± 0.27 | 23.7 ± 1.53 | > 20 | 
CC(=O)Nc1cccc(-n2c(=O)n(C3CC3)c(=O)c3c(Nc4ccc(I)cc4F)n(C)c(=O)c(C)c32)c1 [trametinib] |  |  |  |  |  | IC50 (MEK1/2): 0.0007 to 0.0009 µM
COC(=O)C1(C)CCCC2(C)c3ccc(C(C)C)cc3-c3c(c4cccc(OC)c4n3CCN3CCNCC3)C12 (centres unmarked) [Compound 10f, 2,3,4,4a,9,13c-Hexahydro-7-isopropyl-10-methoxy-1,4a-dimethyl-9–(2-(piperazin-1-yl)ethyl)-1H-dibenzo[a,c]carbazole-1-carboxylic acid methyl ester] | 2.23 ± 0.16 | 3.15 ± 0.13 | 2.03 ± 0.15 | 17.3 ± 0.78 | 0.23 ± 0.03 | 
COC(=O)C[C@H](NC(=O)[C@H](C)NC(=O)[C@@H](NC(=O)OCc1ccccc1)C(C)C)C(=O)CF [Z-VAD-FMK] (Cbz-Val-Ala-Asp(OMe)-CH2F) |  |  |  |  |  | relative cell viability of HepG2 cells treated with 10g plus inhibitor (HepG2 cells; 10g 10 µM in combination with Z-VAD-FMK): 16.53%
CCOc1cccc2c3c(n(CCN4CCNCC4)c12)-c1cc(C(C)C)ccc1C1(C)CCCC(C)(C(=O)OC)C31 (centres unmarked) [Compound 10h, 2,3,4,4a,9,13c-Hexahydro-10-ethoxy-7-isopropyl-1,4a-dimethyl-9–(2-(piperazin-1-yl)ethyl)-1H-dibenzo[a,c]carbazole-1-carboxylic acid methyl ester] | 1.78 ± 0.12 | 4.87 ± 0.48 | 2.21 ± 0.17 | 18.9 ± 1.09 | 1.63 ± 0.12 | 
CN1C(=O)C(Cc2c[nH]c3ccccc23)NC1=S (centres unmarked) [Necrostatin-1] |  |  |  |  |  | effect of inhibitor on cell death caused by compound 10g (in words) (HepG2 cells; in combination with 10g): no apparent effect
COC(=O)C1(C)CCCC2(C)c3ccc(C(C)C)cc3-c3c(c4cccc(C)c4n3CCN3CCNCC3)C12 (centres unmarked) [Compound 10b, 2,3,4,4a,9,13c-Hexahydro-7-isopropyl-1,4a,10-trimethyl-9–(2-(piperazin-1-yl)ethyl)-1H-dibenzo[a,c]carbazole-1-carboxylic acid methyl ester] | 5.03 ± 0.31 | 6.11 ± 0.38 | 5.52 ± 0.47 | 21.9 ± 1.72 | > 20 | 
O=C(O)/C(S)=C/c1ccc(I)cc1 [PD150606] |  |  |  |  |  | relative cell viability of HepG2 cells treated with 10g plus inhibitor (HepG2 cells; 10g 10 µM in combination with PD150606 50 µM): 44.87%
COC(=O)C1(C)CCCC2(C)c3ccc(C(C)C)cc3-c3c(c4cc(C)ccc4n3CCN3CCNCC3)C12 (centres unmarked) [Compound 10a, 2,3,4,4a,9,13c-Hexahydro-7-isopropyl-1,4a,12-trimethyl-9–(2-(piperazin-1-yl)ethyl)-1H-dibenzo[a,c]carbazole-1-carboxylic acid methyl ester] | 1.17 ± 0.12 | 3.05 ± 0.37 | 1.73 ± 0.22 | 16.3 ± 1.56 | 6.36 ± 0.51 | 
CCc1ccc2c(c1)c1c(n2CCN2CCNCC2)-c2cc(C(C)C)ccc2C2(C)CCCC(C)(C(=O)OC)C12 (centres unmarked) [Compound 10c, 2,3,4,4a,9,13c-Hexahydro-12-ethyl-7-isopropyl-1,4a-dimethyl-9–(2-(piperazin-1-yl)ethyl)-1H-dibenzo[a,c]carbazole-1-carboxylic acid methyl ester] | 5.84 ± 0.36 | 7.27 ± 0.51 | 6.56 ± 0.19 | 22.2 ± 1.81 | > 20 | 
COC(=O)C1(C)CCCC2(C)c3ccc(C(C)C)cc3-c3c(c4ccccc4n3CCN3CCNCC3)C12 (centres unmarked) [Compound 6a, 2,3,4,4a,9,13c-Hexahydro-7-isopropyl-1,4a-dimethyl-9–(2-(piperazin-1-yl)ethyl) -1H-dibenzo[a,c]carbazole-1-carboxylic acid methyl ester] | 0.82 ± 0.08 | 2.28 ± 0.19 | 5.2 ± 0.21 | 8.75 ± 0.65 | 13.2 ± 0.73 | MEK1 inhibitory activity (in words) (MEK1 [2]): weak MEK1 inhibitory activity; IC50 ([3]; Homo sapiens, at least one of SMMC-7721, HepG2, Hep3B, read-out: IC50 against at least one hepatocarcinoma cell line): < 10 µM; MEK1 inhibitory activity in preliminary screening (in words) (MEK1 [4]): moderate inhibitory activity
COC(=O)C1(C)CCCC2(C)c3ccc(C(C)C)cc3-c3c(c4cc(C(C)C)ccc4n3CCN3CCNCC3)C12 (centres unmarked) [Compound 10d, 2,3,4,4a,9,13c-Hexahydro-7,12-diisopropyl-1,4a-dimethyl-9–(2-(piperazin-1-yl)ethyl)-1H-dibenzo[a,c]carbazole-1-carboxylic acid methyl ester] | 8.85 ± 0.42 | 8.42 ± 0.39 | 10.5 ± 0.48 | 31 ± 2.39 | > 20 | 
COC(=O)C1(C)CCCC2(C)c3ccc(C(C)C)cc3-c3c(c4ccccc4n3CCN3CCN(C=O)CC3)C12 (centres unmarked) [Compound 6e, 2,3,4,4a,9,13c-Hexahydro-7-isopropyl-1,4a-dimethyl-9–(2-(4-formylpiperazin-1-yl)ethyl)-1H-dibenzo[a,c]carbazole-1-carboxylic acid methyl ester] | 11.4 ± 0.53 | 15.7 ± 1.61 | 17.3 ± 1.78 | > 50 |  | cytotoxic activity against three cancer cell lines (in words) ([3]; SMMC-7721, HepG2 and Hep3B): moderate inhibitions
2,3,4,4a,9,13c-Hexahydro-7-isopropyl-1,4a-dimethyl-9–(2-(piperazin-1-yl) butyl)-1H-dibenzo[a,c]carbazole-1-carboxylic acid methyl ester [Compound 8a] |  |  |  |  |  | IC50 (Hep3B): 2.89 ± 0.27 µM; IC50 (HepG2; 48 h): 4.8 ± 0.32 µM; IC50 (SMMC-7721; 48 h): 6.1 ± 0.47 µM; IC50 ([1]; 48 h): 23.4 ± 2.97 µM; IC50 ([3]; at least one of SMMC-7721, HepG2, Hep3B, read-out: IC50 against at least one hepatocarcinoma cell line): < 10 µM; IC50 ([3]; over SMMC-7721, HepG2 and Hep3B, read-out: IC50 against the three cancer cell lines): 2.89 to 6.1 µM
COC(=O)C1(C)CCCC2(C)c3ccc(C(C)C)cc3-c3c(c4cc(Cl)ccc4n3CCN3CCNCC3)C12 (centres unmarked) [Compound 10j, 2,3,4,4a,9,13c-Hexahydro-12-chloro-7-isopropyl-1,4a-dimethyl-9–(2-(piperazin-1-yl)ethyl)-1H-dibenzo[a,c]carbazole-1-carboxylic acid methyl ester] | 3.75 ± 0.34 | 2.88 ± 0.23 | 2.49 ± 0.18 | 12.2 ± 1.01 | 5.62 ± 0.48 | 
COC(=O)C1(C)CCCC2(C)c3ccc(C(C)C)cc3-c3c(c4cc(OC)ccc4n3CCN3CCNCC3)C12 (centres unmarked) [Compound 10e, 2,3,4,4a,9,13c-Hexahydro-7-isopropyl-12-methoxy-1,4a-dimethyl-9–(2-(piperazin-1-yl)ethyl)-1H-dibenzo[a,c]carbazole-1-carboxylic acid methyl ester] | 4.38 ± 0.35 | 3.73 ± 0.19 | 3.02 ± 0.21 | 15.3 ± 1.13 | 1.28 ± 0.06 | 
